Read-outs that look alike come from different tables or passages of the source.
Tests used:
μ-opioid receptor [1] = biological target: T1, μ-opioid receptor (Homo sapiens (Human), UniProt P35372); test: μ-opioid receptor radioligand ([3H]-diprenorphine) dose-displacement binding assay; conditions: binding affinity
Experimental: μ-Opioid Receptor Binding Assay Procedures: Radioligand dose-displacement binding assays for μ-opioid receptors used 0.3 nM [^3H]-diprenorphine (Perkin Elmer, Shelton, Conn.), with […] membrane protein/well in a final volume of 500 μl binding buffer (10 mM MgCl2, 1 mM EDTA, 5% DMSO, 50 mM HEPES, pH 7.4). Reactions were carried out in the absence or presence of increasing concentrations of unlabeled naloxone. All reactions were conducted in 96-deep well polypropylene plates for 2 hours at room temperature. Binding reactions were terminated by rapid filtration onto 96-well Unifilter GF/C filter plates (Perkin Elmer, Shelton, Conn.), presoaked in 0.5% polyethylenimine using a 96-well tissue harvester (Perkin Elmer, Shelton, Conn.) followed by performing three filtration washes with 500 μl of ice-cold binding buffer. Filter plates were subsequently dried at 50° C. for 2-3 hours. BetaScint scintillation cocktail (Perkin Elmer, Shelton, Conn.) was added (50 μl/well), and plates were counted using a Packard Top-Count for 1 min/well. The data were analyzed using the one-site competition curve fitting functions in GraphPad PRISM™ v. 3.0 or higher (San Diego, Calif.), or an in-house function for one-site competition curve-fitting.
(§1) In TABLE 1, binding affinity of certain Compounds of the Invention to the μ-, δ- and κ-opioid receptors was determined as described above.

κ opioid receptor [2] = biological target: T2, κ opioid receptor (Homo sapiens (Human), UniProt P41145); test: κ-opioid receptor radioligand ([3H]-U69,593) dose-displacement binding assay; conditions: binding affinity
Experimental: κ-Opioid Receptor Binding Assay Procedures: Membranes from recombinantHEK-293 cells, CHO or U-2 OS cells expressing the recombinant human κ opioid receptor (κ) were prepared by lysing cells in ice cold hypotonic buffer (2.5 mM MgCl2, 50 mM HEPES, pH 7.4) (10 mL/10 cm dish) followed by homogenization with a tissue grinder/Teflon pestle. Membranes were collected by centrifugation at 30,000×g for 15 min at 4° C. and pellets were resuspended in hypotonic buffer to a final concentration of 1-3 mg/mL. Protein concentrations were determined using the BioRad protein assay reagent with bovine serum albumen as standard. Aliquots of κ receptor membranes were stored at −80° C.
Radioligand dose displacement assays used 0.4 nM [^3H]-U69,593 (GE Healthcare, Piscataway, N.J.; 40 Ci/mmole) with 15 μg membrane protein (recombinant κ opioid receptor expressed in HEK 293 cells; in-house prep) in a final volume of 200 μl binding buffer (5% DMSO, 50 mM Trizma base, pH 7.4). Non-specific binding was determined in the presence of 10 μM unlabeled naloxone or U69,593. All reactions were performed in 96-well polypropylene plates for 1 hour at a temperature of about 25° C. Binding reactions were terminated by rapid filtration onto 96-well Unifilter GF/C filter plates (Perkin Elmer, Shelton, Conn.) presoaked in 0.5% polyethylenimine (Sigma). Harvesting was performed using a 96-well tissue harvester (Perkin Elmer, Shelton, Conn.) followed by five filtration washes with 200 μl ice-cold binding buffer. Filter plates were subsequently dried at 50° C. for 1-2 hours. Fifty μl/well scintillation cocktail (Perkin Elmer, Shelton, Conn.) was added and plates were counted in a Packard Top-Count for 1 min/well.
as §1

μ-opioid receptor [3] = biological target: T1, μ-opioid receptor; test: μ-opioid receptor [35S]GTPγS functional assay, HEK-293 or CHO cells; assay type: biochemical
Experimental: μ-Opioid Receptor Functional Assay Procedures: [^35S]GTPγS functional assays were conducted using freshly thawed μ-receptor membranes prepared in-house from a cell line expressing recombinant μ opioid receptor in a HEK-293, CHO or U-2 OS cell background, or purchased from a commercial source (Perkin Elmer, Shelton, Conn.; or DiscovRx, Fremont, Calif.). Assay reactions were prepared by sequentially adding the following reagents to binding buffer (100 mM NaCl, 10 mM MgCl2, 20 mM HEPES, pH 7.4) on ice (final concentrations indicated): membrane protein (0.026 mg/mL), saponin ([…]), GDP ([…]) and [^35S]GTPγS (0.20 nM; Perkin Elmer, Shelton, Conn.). The prepared membrane solution (190 μl/well) was transferred to 96-shallow well polypropylene plates containing 10 μl of 20× concentrated stock solutions of the agonist [D-Ala^2, N-methyl-Phe^4 Gly-ol^5]-enkephalin (DAMGO) prepared in dimethyl sulfoxide (DMSO). Plates were incubated for 30 min at about 25° C. with shaking. Reactions were terminated by rapid filtration onto 96-well Unifilter GF/B filter plates (Perkin Elmer, Shelton, Conn.) using a 96-well tissue harvester (Perkin Elmer, Shelton, Conn.) followed by three filtration washes with 200 μl of ice-cold wash buffer (10 mM NaH2PO4, 10 mM Na2HPO4, pH 7.4). Filter plates were subsequently dried at 50° C. for 2-3 hours. BetaScint scintillation cocktail (Perkin Elmer, Shelton, Conn.) was added (50 μl/well) and plates were counted using a Packard Top-Count for 1 min/well. Data were analyzed using the sigmoidal dose-response curve fitting functions in GraphPad PRISM v. 3.0, or an in-house function for non-linear, sigmoidal dose-response curve-fitting.
μ-Opioid Receptor Functional Data: μ GTP EC50 is the concentration of a compound providing 50% of the maximal response for the compound at a μ-opioid receptor.
μ GTP Emax (%) is the maximal effect elicited by a compound relative to the effect elicited by DAMGO, a standard μ agonist. Generally, the μ GTP Emax (%) value measures the efficacy of a compound to treat or prevent pain or other Conditions.
(§2) In TABLE 2, activity response of certain Compounds of the Invention to the μ-, δ- and κ-opioid receptors was determined as described above for functional assays using HEK-293 or CHO cells.

κ opioid receptor [4] = biological target: T2, κ opioid receptor; test: κ-opioid receptor [35S]GTPγS functional assay, HEK-293 or CHO cells; assay type: biochemical
Experimental: κ-Opioid Receptor Functional Assay Procedures: Functional [^35S]GTPγS binding assays were conducted as follows. κ opioid receptor membrane solution was prepared by sequentially adding final concentrations of 0.026 μg/μl κ membrane protein (in-house), 10 μg/mL saponin, 3 μM GDP and 0.20 nM [^35S]GTPγS to binding buffer (100 mM NaCl, 10 mM MgCl2, 20 mM HEPES, pH 7.4) on ice. The prepared membrane solution (190 μl/well) was transferred to 96-shallow well polypropylene plates containing 10 μl of 20× concentrated stock solutions of agonist prepared in DMSO. Plates were incubated for 30 min at a temperature of about 25° C. with shaking. Reactions were terminated by rapid filtration onto 96-well Unifilter GF/B filter plates (Perkin Elmer, Shelton, Conn.) using a 96-well tissue harvester (Packard) and followed by three filtration washes with 200 μl ice-cold binding buffer (10 mM NaH2PO4, 10 mM Na2HPO4, pH 7.4). Filter plates were subsequently dried at 50° C. for 2-3 hours. Fifty μl/well scintillation cocktail (Perkin Elmer, Shelton, Conn.) was added and plates were counted in a Packard Top-Count for 1 min/well.
κ-Opioid Receptor Functional Data: κ GTP EC50 is the concentration of a compound providing 50% of the maximal response for the compound at a κ receptor.
κ GTP Emax (%) is the maximal effect elicited by a compound relative to the effect elicited by U69,593.
as §2

μ-opioid receptor [5] = biological target: T1, μ-opioid receptor; test: μ-opioid receptor [35S]GTPγS functional assay, U-2 OS cells; assay type: biochemical; conditions: for Emax: relative to DAMGO, U-2 OS cells
κ opioid receptor [6] = biological target: T2, κ opioid receptor; test: κ-opioid receptor [35S]GTPγS functional assay, U-2 OS cells; assay type: biochemical; conditions: for Emax: relative to U69,593, U-2 OS cells
[7] = read-out: Opioid Receptor Ki (nM) μ
[8] = read-out: Opioid Receptor Ki (nM) κ
[9] = relative to DAMGO, HEK-293 or CHO cells
[10] = relative to U69,593, HEK-293 or CHO cells
[11] = bound given in μM, read-out: Opioid Receptor Ki κ

| Compound | Ki (μ-opioid receptor [1]; [7]) [nM] | Ki (κ opioid receptor [2]; [8]) [nM] | EC50 (μ-opioid receptor [3]) [nM] | Emax (μ-opioid receptor [3]; [9]) [%] | EC50 (κ opioid receptor [4]) [nM] | Emax (κ opioid receptor [4]; [10]) [%] | also measured |
| --- | --- | --- | --- | --- | --- | --- | --- |
| COc1ccc2c(c1)[C@]13CCN(CC4CC4)[C@H](C2)[C@]1(O)CC[C@@]1(C3)NC(=O)NC1=O [Compound 2, (4bR,4′S,8aS,9R)-11-(cyclopropylmethyl)-8a-hydroxy-3-methoxy-5,7,8,8a,9,10-hexahydrospiro[9,4b-(epiminoethano)phenanthrene-6,4′-imidazolidine]-2′,5′-dione] | 9050 ± 895 | 130 ± 22.7 | 1950 ± 37.7 | 31.3 ± 2.4 | 2500 ± 556 | 63 ± 1.53 | – |
| COc1ccc2c(c1)[C@]13CCN(CC4CC4)[C@H](C2)[C@]1(O)CC[C@@]1(CNC(=O)N1)C3 [Compound 4, (4bR,4′S,8aS,9R)-11-(cyclopropylmethyl)-8a-hydroxy-3-methoxy-5,7,8,8a,9,10-hexahydrospiro[9,4b-(epiminoethano)phenanthrene-6,4′-imidazolidin]-2′-one] | – | 135 ± 38.1 | 809 ± 143 | 20.7 ± 0.67 | 901 ± 389 | 44.3 ± 1.45 | – |
| COc1ccc2c(c1)[C@]13CCN(CC4CC4)[C@H](C2)[C@@H]1CC[C@@]1(C3)NC(=O)NC1=O [Compound 6, (4bS,4′S,8aR,9R)-11-(cyclopropylmethyl)-3-methoxy-5,7,8,8a,9,10-hexahydrospiro[9,4b-(epiminoethano)phenanthrene-6,4′-imidazolidine]-2′,5′-dione] | – | 12.2 ± 2.61 | 1460 ± 121 | 58.3 ± 5.24 | 1230 ± 380 | 89.7 ± 3.53 | – |
| O=C1NC(=O)[C@@]2(CC[C@H]3[C@H]4Cc5ccc(O)cc5[C@@]3(CCN4CC3CC3)C2)N1 [Compound 7, (4bS,4′S,8aR,9R)-11-(cyclopropylmethyl)-3-hydroxy-5,7,8,8a,9,10-hexahydrospiro[9,4b-(epiminoethano)phenanthrene-6,4′-imidazolidine]-2′,5′-dione] | 8.39 ± 2.72 | 0.23 ± 0.05 | 3.76 ± 0.41 | 37 ± 4.04 | 3.68 ± 0.99 | 86.3 ± 2.19 | – |
| CN1CC[C@]23C[C@]4(CC[C@@]2(O)[C@H]1Cc1ccc(O)cc13)NC(=O)NC4=O [Compound 10, (4bR,4′S,8aS,9R)-3,8a-dihydroxy-11-methyl-5,7,8,8a,9,10-hexahydrospiro[9,4b-(epiminoethano)phenanthrene-6,4′-imidazolidine]-2′,5′-dione] | 27 ± 3.07 | 155 ± 29.5 | – | – | – | – | – |
| COc1ccc2c(c1)[C@]13CCN(Cc4ccccc4)[C@H](C2)[C@]1(O)CC[C@@]1(C3)NC(=O)NC1=O [Compound 11, (4bR,4′S,8aS,9R)-11-benzyl-8a-hydroxy-3-methoxy-5,7,8,8a,9,10-hexahydrospiro[9,4b-(epiminoethano)phenanthrene-6,4′-imidazolidine]-2′,5′-dione] | – | – | – | – | – | – | Ki (μ-opioid receptor [1]; bound given in μM, read-out: Opioid Receptor Ki μ): > 20000 nM; Ki (κ opioid receptor [2]; [11]): > 20000 nM |
| COc1ccc2c(c1)[C@]13CCN[C@H](C2)[C@]1(O)CC[C@@]1(C3)NC(=O)NC1=O [Compound 12, (4bR,4′S,8aS,9R)-8a-hydroxy-3-methoxy-5,7,8,8a,9,10-hexahydrospiro[9,4b-(epiminoethano)phenanthrene-6,4′-imidazolidine]-2′,5′-dione] | 14900 | – | – | – | – | – | Ki (κ opioid receptor [2]; [11]): > 20000 nM |
| CCN1C(=O)NC(=O)[C@@]12CC[C@@]1(O)[C@H]3Cc4ccc(O)cc4[C@@]1(CCN3CC1CC1)C2 [Compound 49, (4S,4b′R,8a′S,9′R)-11′-(cyclopropylmethyl)-3-ethyl-3′,8a′-dihydroxy-8′,8a′,9′,10′-tetrahydro-5′H,7′H-spiro[imidazolidine-4,6′-[9,4b](epiminoethano)phenantrene]-2,5-dione] | 2.28 ± 0.62 | 0.47 ± 0.026 | > 20000 | 1 | 6.63 ± 2.21 | 59.3 ± 4.06 | EC50 (μ-opioid receptor [5]): > 20000 nM; Emax (μ-opioid receptor [5]): 2.5%; EC50 (κ opioid receptor [6]): 1.82 ± 0.098 nM; Emax (κ opioid receptor [6]): 111 ± 3.51% |
| CN1C(=O)NC(=O)[C@@]12CC[C@@]1(O)[C@H]3Cc4ccc(O)cc4[C@@]1(CCN3CC1CC1)C2 [Compound 63, (4S,4b′R,8a′S,9′R)-11′-(cyclopropylmethyl)-3′,8a′-dihydroxy-3-methyl-8′,8a′,9′,10′-tetrahydro-5′H,7′H-spiro[imidazolidine-4,6′-[9,4b](epiminoethano)phenantrene]-2,5-dione] | 0.86 ± 0.11 | 0.3 ± 0.041 | > 20000 | 1 | 3.53 ± 0.43 | 74.7 ± 1.45 | EC50 (μ-opioid receptor [5]): 0.97 ± 0.053 nM; Emax (μ-opioid receptor [5]): 14.3 ± 0.67%; EC50 (κ opioid receptor [6]): 0.69 ± 0.025 nM; Emax (κ opioid receptor [6]): 108% |
| (4bS,4′S,8aR,9R)-11-(cyclopropylmethyl)-3-hydroxy-5,7,8,8a,9,10-hexahydrospiro[9,4b-(epiminoethano)phenanthrene-6,4′-imidazolidin]-2′-one [Compound 8] | – | 0.2 ± 0.05 | – | – | – | – | EC50 (μ-opioid receptor [3]; GTPγS, HEK-293 or CHO cells, read-out: Opioid Receptor μ EC50): 7.39 ± 1.89 nM; Opioid Receptor μ Emax (%) (μ-opioid receptor [3]; [9]): 39.67 ± 3.28%; EC50 (κ opioid receptor [4]; GTPγS, HEK-293 or CHO cells, read-out: Opioid Receptor κ EC50): 27.2 ± 8.1 nM; Opioid Receptor κ Emax (%) (κ opioid receptor [4]; [10]): 91.33 ± 5.04% |

Source: patent publication US8987287B2, “Spirocyclic morphinans and their use” (Purdue Pharma L.P., priority 2012, dated 2015)
